Measurements published in US10870647B2, “Imidazopyridine derivative, method for preparing same, and pharmaceutical composition containing same as active ingredient for preventing or treating cancer” (DAEGU-GYEONGBUK MEDICAL INNOVATION FOUNDATION, priority 2016, dated 2020).

How the values were obtained:
Test in all cases: Kinase selectivity, scanMAX Kinase assay panel (DiscoverX), % control at 1 uM
Format in all cases: binding
[1] = biological target: T1, scanMAX Kinase assay panel (Homo sapiens, UniProt Q9BQI3); settings: EIF2AK1; 1 uM; read-out: Percent Control (%)
T1 construct: purchased DiscoverX
Summary of the method: (§1)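 A single concentration of 1 uM, in DMSO, is applied across the kinase panel. Activity against an individual enzyme is assigned where % control is less than 35.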

[2] = biological target: T2, scanMAX Kinase assay panel (Homo sapiens, UniProt O14976); settings: GAK; 1 uM; read-out: Percent Control (%)
T2 construct: purchased DiscoverX
T2 sequence (O14976 1-1311): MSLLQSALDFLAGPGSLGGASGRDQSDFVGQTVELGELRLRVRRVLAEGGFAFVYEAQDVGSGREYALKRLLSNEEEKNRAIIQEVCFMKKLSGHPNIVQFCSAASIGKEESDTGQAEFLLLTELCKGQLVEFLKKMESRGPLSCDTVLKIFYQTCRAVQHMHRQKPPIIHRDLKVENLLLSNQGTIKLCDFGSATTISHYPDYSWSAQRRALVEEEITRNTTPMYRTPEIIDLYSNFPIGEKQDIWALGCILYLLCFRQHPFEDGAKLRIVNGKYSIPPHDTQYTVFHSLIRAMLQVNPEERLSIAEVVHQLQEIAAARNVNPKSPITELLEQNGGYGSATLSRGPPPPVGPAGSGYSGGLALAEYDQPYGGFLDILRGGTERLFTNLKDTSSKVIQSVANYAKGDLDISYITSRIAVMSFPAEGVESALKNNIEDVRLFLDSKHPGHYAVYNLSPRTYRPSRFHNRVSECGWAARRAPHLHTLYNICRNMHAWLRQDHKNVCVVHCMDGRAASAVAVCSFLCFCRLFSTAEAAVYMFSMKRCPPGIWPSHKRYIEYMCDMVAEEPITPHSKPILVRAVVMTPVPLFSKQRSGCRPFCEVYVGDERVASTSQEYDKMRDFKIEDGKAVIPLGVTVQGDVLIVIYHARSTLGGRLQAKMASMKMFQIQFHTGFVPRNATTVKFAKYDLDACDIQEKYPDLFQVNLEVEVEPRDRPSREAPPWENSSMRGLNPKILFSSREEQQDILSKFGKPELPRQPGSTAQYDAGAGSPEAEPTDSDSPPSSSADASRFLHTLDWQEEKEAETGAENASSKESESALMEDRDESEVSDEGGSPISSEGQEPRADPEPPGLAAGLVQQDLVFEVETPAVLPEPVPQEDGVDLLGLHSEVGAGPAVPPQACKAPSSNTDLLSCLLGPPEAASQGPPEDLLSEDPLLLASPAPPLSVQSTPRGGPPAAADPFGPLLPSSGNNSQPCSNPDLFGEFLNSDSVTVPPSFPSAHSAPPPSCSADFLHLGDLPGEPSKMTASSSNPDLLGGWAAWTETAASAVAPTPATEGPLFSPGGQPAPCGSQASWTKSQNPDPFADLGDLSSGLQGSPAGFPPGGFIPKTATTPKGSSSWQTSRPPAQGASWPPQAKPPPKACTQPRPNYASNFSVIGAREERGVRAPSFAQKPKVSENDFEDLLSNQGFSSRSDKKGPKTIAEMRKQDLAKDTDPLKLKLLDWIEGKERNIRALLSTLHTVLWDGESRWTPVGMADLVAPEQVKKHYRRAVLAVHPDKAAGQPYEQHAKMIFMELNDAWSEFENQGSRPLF
Summary of the method: as §1

[3] = biological target: T3, scanMAX Kinase assay panel (Homo sapiens, UniProt Q9BYP7); settings: WNK3; 1 uM; read-out: Percent Control (%)
T3 construct: purchased DiscoverX
Summary of the method: as §1

[4] = biological target: T4, scanMAX Kinase assay panel (Homo sapiens, UniProt Q9HC98); settings: NEK6; 1 uM; read-out: Percent Control (%)
T4 construct: purchased DiscoverX
Summary of the method: as §1

[5] = biological target: T5, scanMAX Kinase assay panel (Homo sapiens, UniProt P42684); settings: ABL2; 1 uM; read-out: Percent Control (%)
T5 construct: purchased DiscoverX
Summary of the method: as §1

[6] = biological target: T6, scanMAX Kinase assay panel (Homo sapiens, UniProt P29320); settings: EPHA3; 1 uM; read-out: Percent Control (%)
T6 construct: purchased DiscoverX
T6 sequence (P29320 21-983): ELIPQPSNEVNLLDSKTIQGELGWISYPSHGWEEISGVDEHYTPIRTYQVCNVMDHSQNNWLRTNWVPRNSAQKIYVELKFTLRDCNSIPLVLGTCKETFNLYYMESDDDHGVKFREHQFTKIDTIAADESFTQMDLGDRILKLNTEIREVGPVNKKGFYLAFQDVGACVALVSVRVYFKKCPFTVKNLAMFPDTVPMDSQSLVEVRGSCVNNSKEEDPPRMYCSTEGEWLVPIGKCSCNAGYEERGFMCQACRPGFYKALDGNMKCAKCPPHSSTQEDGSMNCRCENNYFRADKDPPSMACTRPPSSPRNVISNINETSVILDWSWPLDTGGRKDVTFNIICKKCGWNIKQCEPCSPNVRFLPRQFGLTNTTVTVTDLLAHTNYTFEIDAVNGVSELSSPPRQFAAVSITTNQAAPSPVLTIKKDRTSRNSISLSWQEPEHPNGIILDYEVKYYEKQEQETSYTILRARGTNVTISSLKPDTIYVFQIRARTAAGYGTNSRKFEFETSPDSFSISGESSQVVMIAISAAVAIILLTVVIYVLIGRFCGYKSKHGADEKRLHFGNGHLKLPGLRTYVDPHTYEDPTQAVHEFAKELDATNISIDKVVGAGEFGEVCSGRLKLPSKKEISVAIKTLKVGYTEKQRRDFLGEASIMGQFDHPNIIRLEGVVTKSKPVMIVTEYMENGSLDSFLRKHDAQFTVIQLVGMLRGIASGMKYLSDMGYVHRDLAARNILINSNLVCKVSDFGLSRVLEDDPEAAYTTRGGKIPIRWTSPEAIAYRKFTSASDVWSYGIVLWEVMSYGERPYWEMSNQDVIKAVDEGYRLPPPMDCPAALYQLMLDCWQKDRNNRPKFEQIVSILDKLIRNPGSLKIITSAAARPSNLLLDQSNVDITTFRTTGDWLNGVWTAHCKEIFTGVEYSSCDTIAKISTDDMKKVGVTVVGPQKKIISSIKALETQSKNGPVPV
Summary of the method: as §1

[7] = biological target: T7, scanMAX Kinase assay panel (Homo sapiens, UniProt P07947); settings: YES; 1 uM; read-out: Percent Control (%)
T7 construct: purchased DiscoverX
Summary of the method: as §1

T1 sequence (Q9BQI3 whole entry): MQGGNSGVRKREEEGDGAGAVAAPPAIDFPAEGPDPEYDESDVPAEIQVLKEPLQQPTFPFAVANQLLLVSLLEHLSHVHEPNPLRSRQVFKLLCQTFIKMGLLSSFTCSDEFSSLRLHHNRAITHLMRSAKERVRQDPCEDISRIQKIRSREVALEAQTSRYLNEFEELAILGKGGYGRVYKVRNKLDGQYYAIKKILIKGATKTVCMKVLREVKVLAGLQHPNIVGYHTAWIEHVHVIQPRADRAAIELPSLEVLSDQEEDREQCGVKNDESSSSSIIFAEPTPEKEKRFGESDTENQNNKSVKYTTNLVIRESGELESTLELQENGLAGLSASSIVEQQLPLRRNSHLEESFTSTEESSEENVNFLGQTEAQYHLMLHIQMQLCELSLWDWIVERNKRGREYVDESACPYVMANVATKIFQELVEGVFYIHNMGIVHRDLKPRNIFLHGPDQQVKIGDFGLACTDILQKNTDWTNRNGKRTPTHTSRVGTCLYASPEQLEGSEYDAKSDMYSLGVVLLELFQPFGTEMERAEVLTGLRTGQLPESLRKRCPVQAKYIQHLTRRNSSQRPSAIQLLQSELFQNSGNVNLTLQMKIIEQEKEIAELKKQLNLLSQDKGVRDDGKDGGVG
T3 sequence (Q9BYP7 whole entry): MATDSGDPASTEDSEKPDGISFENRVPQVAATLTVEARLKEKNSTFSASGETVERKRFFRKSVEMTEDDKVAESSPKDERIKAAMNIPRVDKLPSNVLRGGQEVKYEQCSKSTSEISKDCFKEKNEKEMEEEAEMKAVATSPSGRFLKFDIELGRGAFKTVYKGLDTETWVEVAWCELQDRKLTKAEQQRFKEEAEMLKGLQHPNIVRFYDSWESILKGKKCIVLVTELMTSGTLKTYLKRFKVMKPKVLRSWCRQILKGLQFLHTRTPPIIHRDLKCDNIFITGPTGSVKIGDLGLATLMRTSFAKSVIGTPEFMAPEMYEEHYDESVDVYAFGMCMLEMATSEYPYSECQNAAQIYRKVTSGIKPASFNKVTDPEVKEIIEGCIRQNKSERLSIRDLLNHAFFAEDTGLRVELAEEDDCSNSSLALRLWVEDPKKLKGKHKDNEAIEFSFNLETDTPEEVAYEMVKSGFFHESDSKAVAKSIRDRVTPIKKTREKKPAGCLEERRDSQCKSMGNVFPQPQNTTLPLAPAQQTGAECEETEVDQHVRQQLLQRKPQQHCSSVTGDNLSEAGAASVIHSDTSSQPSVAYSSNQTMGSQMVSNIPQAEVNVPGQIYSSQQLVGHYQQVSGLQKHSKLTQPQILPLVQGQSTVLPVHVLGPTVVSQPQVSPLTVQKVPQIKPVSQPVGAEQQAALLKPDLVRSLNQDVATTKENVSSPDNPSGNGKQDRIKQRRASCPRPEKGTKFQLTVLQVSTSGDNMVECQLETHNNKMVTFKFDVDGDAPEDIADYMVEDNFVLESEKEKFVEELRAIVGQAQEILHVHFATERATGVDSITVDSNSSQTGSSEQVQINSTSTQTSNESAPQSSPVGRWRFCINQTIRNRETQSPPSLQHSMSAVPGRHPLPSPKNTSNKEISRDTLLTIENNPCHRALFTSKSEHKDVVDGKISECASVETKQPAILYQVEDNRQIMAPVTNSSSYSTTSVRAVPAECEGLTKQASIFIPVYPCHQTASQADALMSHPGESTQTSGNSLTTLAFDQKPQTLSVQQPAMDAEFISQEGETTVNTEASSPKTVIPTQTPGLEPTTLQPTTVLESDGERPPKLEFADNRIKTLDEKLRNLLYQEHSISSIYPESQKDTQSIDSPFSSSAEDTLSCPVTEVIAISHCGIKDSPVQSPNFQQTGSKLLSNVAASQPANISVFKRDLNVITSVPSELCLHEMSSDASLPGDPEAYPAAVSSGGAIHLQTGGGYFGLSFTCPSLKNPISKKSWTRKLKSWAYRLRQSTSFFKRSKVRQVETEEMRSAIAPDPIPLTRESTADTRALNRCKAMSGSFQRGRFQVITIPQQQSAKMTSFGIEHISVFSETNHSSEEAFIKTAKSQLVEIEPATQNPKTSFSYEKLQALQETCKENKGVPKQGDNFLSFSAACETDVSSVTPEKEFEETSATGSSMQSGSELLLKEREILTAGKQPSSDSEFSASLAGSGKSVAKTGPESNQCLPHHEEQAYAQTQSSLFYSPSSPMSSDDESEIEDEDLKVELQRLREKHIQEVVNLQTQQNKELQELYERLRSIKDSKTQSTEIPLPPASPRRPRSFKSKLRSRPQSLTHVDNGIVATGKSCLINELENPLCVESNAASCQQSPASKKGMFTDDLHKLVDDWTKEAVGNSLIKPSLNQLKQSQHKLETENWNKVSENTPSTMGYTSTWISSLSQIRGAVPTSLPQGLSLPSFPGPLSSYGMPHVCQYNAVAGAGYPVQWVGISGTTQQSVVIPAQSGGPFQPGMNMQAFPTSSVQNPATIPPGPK
T7 sequence (P07947 whole entry): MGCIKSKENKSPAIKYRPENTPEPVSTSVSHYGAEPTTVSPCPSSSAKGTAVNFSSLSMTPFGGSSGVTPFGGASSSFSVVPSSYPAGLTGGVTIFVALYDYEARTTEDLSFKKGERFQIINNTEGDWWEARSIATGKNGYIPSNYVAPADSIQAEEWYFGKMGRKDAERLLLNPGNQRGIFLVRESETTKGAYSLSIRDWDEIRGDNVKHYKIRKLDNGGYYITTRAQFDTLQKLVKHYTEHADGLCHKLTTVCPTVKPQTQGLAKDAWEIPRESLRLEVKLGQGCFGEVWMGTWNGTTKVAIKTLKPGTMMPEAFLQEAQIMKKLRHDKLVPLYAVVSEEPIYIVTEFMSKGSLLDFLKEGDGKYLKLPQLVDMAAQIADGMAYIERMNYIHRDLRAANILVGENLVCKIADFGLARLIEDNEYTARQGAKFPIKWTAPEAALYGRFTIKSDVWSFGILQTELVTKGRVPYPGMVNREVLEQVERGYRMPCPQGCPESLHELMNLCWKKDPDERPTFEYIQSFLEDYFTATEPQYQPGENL
T5 sequence (P42684 whole entry): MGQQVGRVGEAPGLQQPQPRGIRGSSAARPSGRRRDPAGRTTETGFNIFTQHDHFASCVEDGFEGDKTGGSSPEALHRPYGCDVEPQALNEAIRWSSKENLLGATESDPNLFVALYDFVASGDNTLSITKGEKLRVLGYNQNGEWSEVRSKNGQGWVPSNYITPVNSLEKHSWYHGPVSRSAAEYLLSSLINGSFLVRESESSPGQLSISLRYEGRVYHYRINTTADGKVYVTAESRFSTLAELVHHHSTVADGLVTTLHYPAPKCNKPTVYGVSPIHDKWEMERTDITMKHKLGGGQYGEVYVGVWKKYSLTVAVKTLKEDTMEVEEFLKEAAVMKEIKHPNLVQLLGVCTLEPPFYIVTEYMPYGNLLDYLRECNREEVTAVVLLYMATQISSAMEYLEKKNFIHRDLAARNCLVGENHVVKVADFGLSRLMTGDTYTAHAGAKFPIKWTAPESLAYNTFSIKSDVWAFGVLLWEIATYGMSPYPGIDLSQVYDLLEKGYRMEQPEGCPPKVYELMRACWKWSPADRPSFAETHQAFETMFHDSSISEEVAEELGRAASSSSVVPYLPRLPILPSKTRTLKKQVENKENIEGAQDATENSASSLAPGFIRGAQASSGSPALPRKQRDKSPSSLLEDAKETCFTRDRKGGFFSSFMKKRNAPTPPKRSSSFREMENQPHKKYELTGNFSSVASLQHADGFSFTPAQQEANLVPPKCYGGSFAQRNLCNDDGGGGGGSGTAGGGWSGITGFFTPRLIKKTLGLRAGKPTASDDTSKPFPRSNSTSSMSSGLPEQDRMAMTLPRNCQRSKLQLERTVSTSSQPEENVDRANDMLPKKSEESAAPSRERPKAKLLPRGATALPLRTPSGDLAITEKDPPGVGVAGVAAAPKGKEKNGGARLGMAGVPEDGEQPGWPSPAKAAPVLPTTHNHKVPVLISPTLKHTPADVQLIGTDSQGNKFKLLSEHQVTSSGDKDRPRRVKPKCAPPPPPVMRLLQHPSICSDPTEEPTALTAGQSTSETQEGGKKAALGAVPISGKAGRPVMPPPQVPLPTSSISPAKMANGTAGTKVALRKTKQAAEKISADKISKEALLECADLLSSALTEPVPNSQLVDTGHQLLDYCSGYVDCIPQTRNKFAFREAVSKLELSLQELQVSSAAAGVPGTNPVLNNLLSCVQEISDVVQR
T4 sequence (Q9HC98 whole entry): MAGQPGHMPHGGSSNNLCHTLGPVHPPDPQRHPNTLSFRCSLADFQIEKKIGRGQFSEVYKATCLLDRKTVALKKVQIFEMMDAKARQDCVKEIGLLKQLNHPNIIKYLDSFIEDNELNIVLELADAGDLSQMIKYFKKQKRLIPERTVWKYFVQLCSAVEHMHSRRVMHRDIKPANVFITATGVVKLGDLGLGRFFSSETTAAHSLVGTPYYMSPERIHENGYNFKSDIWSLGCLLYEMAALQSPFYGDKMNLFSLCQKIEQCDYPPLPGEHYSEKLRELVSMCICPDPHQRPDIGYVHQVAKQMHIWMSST

Cc1ccc(C(=O)Nc2ccc(CN3CCN(C)CC3)c(C(F)(F)F)c2)cc1C#Cc1cnc2c(Nc3cnn(C)c3)cccn12 [Example 1, 4-methyl-3-((8-((1-methyl-1H-pyrazol-4-yl)amino)imidazo[1,2-a]pyridin-3-yl)ethynyl)-N-(4-((4-methylpiperazin-1-yl)methyl)-3-(trifluoromethyl)phenyl)benzamide]
remaining binding at 1 µM [1]: 67%
remaining binding at 1 µM [2]: 7%
remaining binding at 1 µM [3]: 85%
remaining binding at 1 µM [4]: 65%
remaining binding at 1 µM [5]: 0%
remaining binding at 1 µM [6]: 19%
remaining binding at 1 µM [7]: 1%

Cc1cn(-c2cc(NC(=O)c3ccc(C)c(C#Cc4cnc5c(Nc6cnn(C)c6)cccn45)c3)cc(C(F)(F)F)c2)cn1 [Example 12, 4-methyl-N-(3-(4-methyl-1H-imidazol-1-yl)-5-(trifluoromethyl)phenyl)-3-((8-((1-methyl-1H-pyrazol-4-yl)amino)imidazo[1,2-a]pyridin-3-yl)ethynyl)benzamide]
remaining binding at 1 µM [1]: 95%
remaining binding at 1 µM [2]: 87%
remaining binding at 1 µM [3]: 100%
remaining binding at 1 µM [4]: 88%
remaining binding at 1 µM [5]: 1%
remaining binding at 1 µM [6]: 27%
remaining binding at 1 µM [7]: 2%

Cc1ccc(NC(=O)C2(C(=O)Nc3ccc(F)cc3)CC2)cc1C#Cc1cnc2c(Nc3cnn(C(C)C)c3)cccn12 [Example 78]
remaining binding at 1 µM [1]: 94%
remaining binding at 1 µM [2]: 100%
remaining binding at 1 µM [3]: 100%
remaining binding at 1 µM [4]: 100%
remaining binding at 1 µM [5]: 14%
remaining binding at 1 µM [6]: 76%
remaining binding at 1 µM [7]: 100%
